Measurements as given in ChEMBL document CHEMBL4665624, “Synthesis of 5-(4-(1H-phenanthro[9,10-d]imidazol-2-yl)benzylidene)thiazolidine-2,4-dione as promising DNA and serum albumin-binding agents and evaluation of antitumor activity” (Eur J Med Chem, 2019).

Key:
[1] = tested on: EKVX; test: Antitumor activity against human EKVX cells assessed as cell growth inhibition at 10 uM incubated for 48 hrs by sulforhodamine B assay; type: functional; details: read-out: GI
[2] = tested on: UO-31; test: Antitumor activity against human UO-31 cells assessed as cell growth inhibition at 10 uM incubated for 48 hrs by sulforhodamine B assay; type: functional; details: read-out: GI
[3] = tested on: SW-620; test: Antitumor activity against human SW620 cells assessed as cell growth inhibition at 10 uM incubated for 48 hrs by sulforhodamine B assay; details: SW-620, 48 h, read-out: GI
[4] = tested on: HCC 2998; test: Antitumor activity against human HCC2998 cells assessed as cell growth inhibition at 10 uM incubated for 48 hrs by sulforhodamine B assay; type: functional; details: read-out: GI
[5] = tested on: NCI-H522; test: Antitumor activity against human NCI-H522 cells assessed as cell growth inhibition at 10 uM incubated for 48 hrs by sulforhodamine B assay; type: functional; details: read-out: GI
[6] = tested on: SN12C; test: Antitumor activity against human SN12C cells assessed as cell growth inhibition at 10 uM incubated for 48 hrs by sulforhodamine B assay; type: functional; details: read-out: GI
[7] = tested on: RXF 393; test: Antitumor activity against human RXF 393 cells assessed as cell growth inhibition at 10 uM incubated for 48 hrs by sulforhodamine B assay; type: functional; details: read-out: GI
[8] = tested on: HL-60(TB); test: Antitumor activity against human HL-60(TB) cells assessed as cell growth inhibition at 10 uM incubated for 48 hrs by sulforhodamine B assay; type: functional; details: read-out: GI
[9] = tested on: RPMI-8226; test: Antitumor activity against human RPMI8226 cells assessed as cell growth inhibition at 10 uM incubated for 48 hrs by sulforhodamine B assay; type: functional; details: read-out: GI
[10] = tested on: HCT-15; test: Antitumor activity against human HCT15 cells assessed as cell growth inhibition at 10 uM incubated for 48 hrs by sulforhodamine B assay; type: functional; details: read-out: GI
[11] = tested on: SNB-19; test: Antitumor activity against human SNB-19 cells assessed as cell growth inhibition at 10 uM incubated for 48 hrs by sulforhodamine B assay; type: functional; details: read-out: GI
[12] = tested on: NCI-H226; test: Antitumor activity against human NCI-H226 assessed as cell growth inhibition at 10 uM incubated for 48 hrs by sulforhodamine B assay; type: functional; details: read-out: GI
[13] = tested on: Hs-578T; test: Antitumor activity against human HS 578T cells assessed as cell growth inhibition at 10 uM incubated for 48 hrs by sulforhodamine B assay; type: functional; details: read-out: GI
[14] = tested on: CCRF-CEM; test: Antitumor activity against human CCRF-CEM cells assessed as cell growth inhibition at 10 uM incubated for 48 hrs by sulforhodamine B assay; type: functional; details: read-out: GI
[15] = tested on: OVCAR-4; test: Antitumor activity against human OVCAR-4 cells assessed as cell growth inhibition at 10 uM incubated for 48 hrs by sulforhodamine B assay; type: functional; details: read-out: GI
[16] = tested on: SF-268; test: Antitumor activity against human SF268 cells assessed as cell growth inhibition at 10 uM incubated for 48 hrs by sulforhodamine B assay; type: functional; details: read-out: GI
[17] = tested on: NCI/ADR-RES; test: Antitumor activity against human NCI/ADR-RES cells assessed as cell growth inhibition at 10 uM incubated for 48 hrs by sulforhodamine B assay; type: functional; details: read-out: GI
[18] = tested on: COLO 205; test: Antitumor activity against human COLO205 cells assessed as cell growth inhibition at 10 uM incubated for 48 hrs by sulforhodamine B assay; type: functional; details: read-out: GI
[19] = tested on: PC-3; test: Antitumor activity against human PC-3 cells assessed as cell growth inhibition at 10 uM incubated for 48 hrs by sulforhodamine B assay; type: functional; details: read-out: GI
[20] = tested on: OVCAR-8; test: Antitumor activity against human OVCAR-8 cells assessed as cell growth inhibition at 10 uM incubated for 48 hrs by sulforhodamine B assay; type: functional; details: read-out: GI
[21] = tested on: KM12; test: Antitumor activity against human KM12 cells assessed as cell growth inhibition at 10 uM incubated for 48 hrs by sulforhodamine B assay; type: functional; details: read-out: GI
[22] = tested on: HOP-92; test: Antitumor activity against human HOP92 cells assessed as cell growth inhibition at 10 uM incubated for 48 hrs by sulforhodamine B assay; type: functional; details: read-out: GI
[23] = tested on: SF-295; test: Antitumor activity against human SF295 cells assessed as cell growth inhibition at 10 uM incubated for 48 hrs by sulforhodamine B assay; type: functional; details: read-out: GI
[24] = tested on: Malme-3M; test: Antitumor activity against human MALME-3M cells assessed as cell growth inhibition at 10 uM incubated for 48 hrs by sulforhodamine B assay; type: functional; details: read-out: GI
[25] = tested on: HT-29; test: Antitumor activity against human HT-29 cells assessed as cell growth inhibition at 10 uM incubated for 48 hrs by sulforhodamine B assay; type: functional; details: read-out: GI
[26] = tested on: MDA-MB-231; test: Antitumor activity against human MDA-MB-231/ATCC cells assessed as cell growth inhibition at 10 uM incubated for 48 hrs by sulforhodamine B assay; type: functional; details: read-out: GI
[27] = tested on: NCI-H23; test: Antitumor activity against human NCI-H23 cells assessed as cell growth inhibition at 10 uM incubated for 48 hrs by sulforhodamine B assay; type: functional; details: read-out: GI
[28] = tested on: SK-OV-3; test: Antitumor activity against human SK-OV-3 cells assessed as cell growth inhibition at 10 uM incubated for 48 hrs by sulforhodamine B assay; type: functional; details: read-out: GI
[29] = tested on: UACC-62; test: Antitumor activity against human UACC-62 cells assessed as cell growth inhibition at 10 uM incubated for 48 hrs by sulforhodamine B assay; type: functional; details: read-out: GI
[30] = tested on: HCT-116; test: Antitumor activity against human HCT116 cells assessed as cell growth inhibition at 10 uM incubated for 48 hrs by sulforhodamine B assay; type: functional; details: read-out: GI
[31] = tested on: MDA-MB-468; test: Antitumor activity against human MDA-MB-468 cells assessed as cell growth inhibition at 10 uM incubated for 48 hrs by sulforhodamine B assay; type: functional; details: read-out: GI
[32] = tested on: MOLT-4; test: Antitumor activity against human MOLT4 cells assessed as cell growth inhibition at 10 uM incubated for 48 hrs by sulforhodamine B assay; type: functional; details: read-out: GI
[33] = tested on: K562; test: Antitumor activity against human K562 cells assessed as cell growth inhibition at 10 uM incubated for 48 hrs by sulforhodamine B assay; type: functional; details: read-out: GI
[34] = tested on: ACHN; test: Antitumor activity against human ACHN cells assessed as cell growth inhibition at 10 uM incubated for 48 hrs by sulforhodamine B assay; type: functional; details: read-out: GI
[35] = tested on: BT-549; test: Antitumor activity against human BT-549 cells assessed as cell growth inhibition at 10 uM incubated for 48 hrs by sulforhodamine B assay; type: functional; details: read-out: GI
[36] = tested on: SR; test: Antitumor activity against human SR cells assessed as cell growth inhibition at 10 uM incubated for 48 hrs by sulforhodamine B assay; type: functional; details: read-out: GI
[37] = tested on: NCI-H460; test: Antitumor activity against human NCI-H460 assessed as cell growth inhibition at 10 uM incubated for 48 hrs by sulforhodamine B assay; type: functional; details: read-out: GI
[38] = tested on: SK-MEL-28; test: Antitumor activity against human SK-MEL-28 cells assessed as cell growth inhibition at 10 uM incubated for 48 hrs by sulforhodamine B assay; type: functional; details: read-out: GI
[39] = tested on: IGROV-1; test: Antitumor activity against human IGROV1 cells assessed as cell growth inhibition at 10 uM incubated for 48 hrs by sulforhodamine B assay; type: functional; details: read-out: GI
[40] = tested on: MDA-MB-435; test: Antitumor activity against human MDA-MB-435 cells assessed as cell growth inhibition at 10 uM incubated for 48 hrs by sulforhodamine B assay; type: functional; details: read-out: GI
[41] = tested on: A498; test: Antitumor activity against human A498 cells assessed as cell growth inhibition at 10 uM incubated for 48 hrs by sulforhodamine B assay; type: functional; details: read-out: GI
[42] = tested on: SNB-75; test: Antitumor activity against human SNB-75 cells assessed as cell growth inhibition at 10 uM incubated for 48 hrs by sulforhodamine B assay; type: functional; details: read-out: GI
[43] = tested on: U-251; test: Antitumor activity against human U251 cells assessed as cell growth inhibition at 10 uM incubated for 48 hrs by sulforhodamine B assay; type: functional; details: read-out: GI
[44] = tested on: OVCAR-3; test: Antitumor activity against human OVCAR-3 cells assessed as cell growth inhibition at 10 uM incubated for 48 hrs by sulforhodamine B assay; type: functional; details: read-out: GI
[45] = tested on: M14; test: Antitumor activity against human M14 cells assessed as cell growth inhibition at 10 uM incubated for 48 hrs by sulforhodamine B assay; type: functional; details: read-out: GI
[46] = tested on: 786-0; test: Antitumor activity against human 786-0 cells assessed as cell growth inhibition at 10 uM incubated for 48 hrs by sulforhodamine B assay; type: functional; details: read-out: GI
[47] = tested on: MCF7; test: Antitumor activity against human MCF7 cells assessed as cell growth inhibition at 10 uM incubated for 48 hrs by sulforhodamine B assay; type: functional; details: read-out: GI
[48] = tested on: LOX IMVI; test: Antitumor activity against human LOX IMVI cells assessed as cell growth inhibition at 10 uM incubated for 48 hrs by sulforhodamine B assay; type: functional; details: read-out: GI

Structure (SMILES): CCN(CC)c1ccc(-c2nc3c4ccccc4c4ccccc4c3[nH]2)c(O)c1
- inhibition of growth at 10 µM [1]: 18.2%
- inhibition of growth at 10 µM [2]: 24.4%
- inhibition of growth at 10 µM [3]: < 10%
- inhibition of growth at 10 µM [4]: < 10%
- inhibition of growth at 10 µM [5]: 10.4%
- inhibition of growth at 10 µM [6]: < 10%
- inhibition of growth at 10 µM [7]: < 10%
- inhibition of growth at 10 µM [8]: < 10%
- inhibition of growth at 10 µM [9]: < 10%
- inhibition of growth at 10 µM [10]: 13.8%
- inhibition of growth at 10 µM [11]: < 10%
- inhibition of growth at 10 µM [12]: < 10%
- inhibition of growth at 10 µM [13]: < 10%
- inhibition of growth at 10 µM [14]: < 10%
- inhibition of growth at 10 µM [15]: < 10%
- inhibition of growth at 10 µM [16]: < 10%
- inhibition of growth at 10 µM [17]: < 10%
- inhibition of growth at 10 µM [18]: < 10%
- inhibition of growth at 10 µM [19]: < 10%
- inhibition of growth at 10 µM [20]: < 10%
- inhibition of growth at 10 µM [21]: < 10%
- inhibition of growth at 10 µM [22]: 24.2%
- inhibition of growth at 10 µM [23]: < 10%
- inhibition of growth at 10 µM [24]: < 10%
- inhibition of growth at 10 µM [25]: < 10%
- inhibition of growth at 10 µM [26]: 19.4%
- inhibition of growth at 10 µM [27]: < 10%
- inhibition of growth at 10 µM [28]: 10.1%
- inhibition of growth at 10 µM [29]: 20.1%
- inhibition of growth at 10 µM [30]: < 10%
- inhibition of growth at 10 µM [31]: < 10%
- inhibition of growth at 10 µM [32]: < 10%
- inhibition of growth at 10 µM [33]: 20.5%
- inhibition of growth at 10 µM [34]: < 10%
- inhibition of growth at 10 µM [35]: < 10%
- inhibition of growth at 10 µM [36]: 15.8%
- inhibition of growth at 10 µM [37]: < 10%
- inhibition of growth at 10 µM [38]: < 10%
- inhibition of growth at 10 µM [39]: < 10%
- inhibition of growth at 10 µM [40]: < 10%
- inhibition of growth at 10 µM [41]: < 10%
- inhibition of growth at 10 µM [42]: < 10%
- inhibition of growth at 10 µM [43]: < 10%
- inhibition of growth at 10 µM [44]: < 10%
- inhibition of growth at 10 µM [45]: < 10%
- inhibition of growth at 10 µM [46]: < 10%
- inhibition of growth at 10 µM [47]: 23.8%
- inhibition of growth at 10 µM [48]: 11.7%
